Reference: publication PMC9101188, “Human α-Defensin-6 Neutralizes Clostridioides difficile Toxins TcdA and TcdB by Direct Binding” (International Journal of Molecular Sciences, 2022)

Columns and labels:
Rac1 = format: cell-based, African green monkey
Vero cells [1] = assay: Aggregation of TcdB-DL488 and cell morphology in Vero cells; format: cell-based, African green monkey; conditions: TcdB-DL488 22 nM + α-def-6 6 µM, 0.5 h, 37 °C (n = 2)
Experimental: (§1) Cells were fixed and permeabilized. […] Scale bars correspond to 50 µm. […] TcdB was detected.
Cells were grown in their respective media under humidified conditions at 37 °C and 5% CO2. Vero cells (African green monkey kidney cells; DSMZ, Braunschweig, Germany) were maintained in Gibco minimum essential medium (MEM; Thermo Fisher Scientific, Waltham, MA, USA) supplemented with 10% fetal calf serum (FCS; Thermo Fisher Scientific, Waltham, MA, USA), 1 mM sodium pyruvate (Thermo Fisher Scientific, Waltham, MA, USA), 2 mM L-glutamine (PAN-Biotech, Aidenbach, Germany), 0.1 mM non-essential amino acids (Thermo Fisher Scientific, Waltham, MA, USA) and 100 U/mL penicillin and 100 µg/mL streptomycin (both Thermo Fisher Scientific, Waltham, MA, USA). CaCo-2 cells (human epithelial colorectal adenocarcinoma cells, HTB-37; ATCC, Manassas, VA, USA) were cultured in Gibco Dulbecco’s Modified Eagle Medium (DMEM; Thermo Fisher Scientific, Waltham, MA, USA) plus 10% FCS, 1 mM sodium pyruvate, 0.1 mM non-essential amino acids and 100 U/mL penicillin and 100 µg/mL streptomycin.
Simultaneously the same volume of PBS was exposed to DyLight^TM 488 NHS-Ester to serve as a negative control in experiments. To remove free fluorescence dye, the samples were rebuffered by passing through Zeba^TM Spin Desalting Columns via centrifugation. […]

TcdB glucosyltransferase = assay: In vitro glucosylation of Rac1 by TcdB (CaCo-2 lysate, Western blot); format: biochemical, C. difficile VPI 10463; conditions: CaCo-2 cell lysate 40 µg, TcdB 50 ng; α-def-6 up to 12 µM; 2 h, 37 °C, pH 7.5; Western blot (n = 4)
Experimental: The flow rate was 25 µL/min. […] A representative gel is shown (n = 2). […] GAPDH served as the loading control. A representative Western blot is shown.
To evaluate the potential effects of α-def-6 on TcdB glucosyltransferase activity, 40 µg of CaCo-2 cell lysate were used as a source of Rac1 and incubated with TcdB (50 ng) in glucosylation buffer (50 mM HEPES, 100 mM KCl, 2 mM MgCl2, 1 mM MnCl2, 100 mg/L BSA, pH 7.5) in a final volume of 20 µL. Two concentrations of α-def-6 (6 µM, 12 µM) were tested. Reactions were allowed to proceed for 2 h at 37 °C and stopped with the addition of a Laemmli buffer and heating for 10 min at 95 °C. The samples were loaded onto a 12.5% polyacrylamide gel and separated via SDS-PAGE followed by Western blotting. Unspecific binding sites were blocked with 5% (w/v) skim milk powder diluted in PBS with 0.1% (v/v) Tween®20 (PBS-T, pH 7.4) for 1 h at RT. The glucosylation status of Rac1 was assessed by probing with a mouse anti-Rac1-antibody (1:500, #610651, BD Biosciences, Franklin Lakes, NJ, USA) specifically directed against non-glucosylated Rac1 overnight at 4 °C. After washing, the membrane was incubated with a secondary horseradish-peroxidase (HRP)-conjugated goat-anti-mouse antibody (1:2500, #31430, Invitrogen by Thermo Fisher Scientific, Waltham, MA, USA) for 1 h at RT. Signals were detected using the ECL-system. […]

CaCo-2 cells [2] = system: CaCo-2 cells
CaCo-2 monolayer = format: cell-based, human
TcdB-DL488 = target: T1, TcdB-DL488 (Clostridioides difficile, UniProt P18177); assay: Aggregation of TcdB-DL488 over time in the absence of cells (fluorescence microscopy); set-up: species or system C. difficile VPI 10463; conditions: α-def-6 6 µM, TcdB-DL488 30 nM in PBS, 37 °C
T1 construct: The native toxins TcdA and TcdB from C. difficile VPI 10463 were expressed and purified; made in house; host or cells: C. difficile VPI 10463 (inferred from "native toxins")
Experimental: as §1
Simultaneously the same volume of PBS was exposed to DyLight^TM 488 NHS-Ester to serve as a negative control in experiments. To remove free fluorescence dye, the samples were rebuffered by passing through Zeba^TM Spin Desalting Columns via centrifugation.
Aggregation was allowed to proceed for 30 min at 37 °C. Images were taken every second for the first 5 min and every 10 s for additional 25 min. Images were processed using ImageJ.

CaCo-2 cells [3] = system: CaCo-2 cells; remark: listed apart in the source
SARS-CoV-2 = conditions: ref [55]; cited from earlier work
Excerpt: There is increasing evidence that α-def-6 represents an outlier among the α-defensins, which is also noticeable in the context of bacterial toxins. Anti-toxin activities have already been described for several α-defensins.

Vero cells [4] = system: Vero cells
zebrafish embryos = conditions: in vivo

T1 sequence (P18177 whole entry): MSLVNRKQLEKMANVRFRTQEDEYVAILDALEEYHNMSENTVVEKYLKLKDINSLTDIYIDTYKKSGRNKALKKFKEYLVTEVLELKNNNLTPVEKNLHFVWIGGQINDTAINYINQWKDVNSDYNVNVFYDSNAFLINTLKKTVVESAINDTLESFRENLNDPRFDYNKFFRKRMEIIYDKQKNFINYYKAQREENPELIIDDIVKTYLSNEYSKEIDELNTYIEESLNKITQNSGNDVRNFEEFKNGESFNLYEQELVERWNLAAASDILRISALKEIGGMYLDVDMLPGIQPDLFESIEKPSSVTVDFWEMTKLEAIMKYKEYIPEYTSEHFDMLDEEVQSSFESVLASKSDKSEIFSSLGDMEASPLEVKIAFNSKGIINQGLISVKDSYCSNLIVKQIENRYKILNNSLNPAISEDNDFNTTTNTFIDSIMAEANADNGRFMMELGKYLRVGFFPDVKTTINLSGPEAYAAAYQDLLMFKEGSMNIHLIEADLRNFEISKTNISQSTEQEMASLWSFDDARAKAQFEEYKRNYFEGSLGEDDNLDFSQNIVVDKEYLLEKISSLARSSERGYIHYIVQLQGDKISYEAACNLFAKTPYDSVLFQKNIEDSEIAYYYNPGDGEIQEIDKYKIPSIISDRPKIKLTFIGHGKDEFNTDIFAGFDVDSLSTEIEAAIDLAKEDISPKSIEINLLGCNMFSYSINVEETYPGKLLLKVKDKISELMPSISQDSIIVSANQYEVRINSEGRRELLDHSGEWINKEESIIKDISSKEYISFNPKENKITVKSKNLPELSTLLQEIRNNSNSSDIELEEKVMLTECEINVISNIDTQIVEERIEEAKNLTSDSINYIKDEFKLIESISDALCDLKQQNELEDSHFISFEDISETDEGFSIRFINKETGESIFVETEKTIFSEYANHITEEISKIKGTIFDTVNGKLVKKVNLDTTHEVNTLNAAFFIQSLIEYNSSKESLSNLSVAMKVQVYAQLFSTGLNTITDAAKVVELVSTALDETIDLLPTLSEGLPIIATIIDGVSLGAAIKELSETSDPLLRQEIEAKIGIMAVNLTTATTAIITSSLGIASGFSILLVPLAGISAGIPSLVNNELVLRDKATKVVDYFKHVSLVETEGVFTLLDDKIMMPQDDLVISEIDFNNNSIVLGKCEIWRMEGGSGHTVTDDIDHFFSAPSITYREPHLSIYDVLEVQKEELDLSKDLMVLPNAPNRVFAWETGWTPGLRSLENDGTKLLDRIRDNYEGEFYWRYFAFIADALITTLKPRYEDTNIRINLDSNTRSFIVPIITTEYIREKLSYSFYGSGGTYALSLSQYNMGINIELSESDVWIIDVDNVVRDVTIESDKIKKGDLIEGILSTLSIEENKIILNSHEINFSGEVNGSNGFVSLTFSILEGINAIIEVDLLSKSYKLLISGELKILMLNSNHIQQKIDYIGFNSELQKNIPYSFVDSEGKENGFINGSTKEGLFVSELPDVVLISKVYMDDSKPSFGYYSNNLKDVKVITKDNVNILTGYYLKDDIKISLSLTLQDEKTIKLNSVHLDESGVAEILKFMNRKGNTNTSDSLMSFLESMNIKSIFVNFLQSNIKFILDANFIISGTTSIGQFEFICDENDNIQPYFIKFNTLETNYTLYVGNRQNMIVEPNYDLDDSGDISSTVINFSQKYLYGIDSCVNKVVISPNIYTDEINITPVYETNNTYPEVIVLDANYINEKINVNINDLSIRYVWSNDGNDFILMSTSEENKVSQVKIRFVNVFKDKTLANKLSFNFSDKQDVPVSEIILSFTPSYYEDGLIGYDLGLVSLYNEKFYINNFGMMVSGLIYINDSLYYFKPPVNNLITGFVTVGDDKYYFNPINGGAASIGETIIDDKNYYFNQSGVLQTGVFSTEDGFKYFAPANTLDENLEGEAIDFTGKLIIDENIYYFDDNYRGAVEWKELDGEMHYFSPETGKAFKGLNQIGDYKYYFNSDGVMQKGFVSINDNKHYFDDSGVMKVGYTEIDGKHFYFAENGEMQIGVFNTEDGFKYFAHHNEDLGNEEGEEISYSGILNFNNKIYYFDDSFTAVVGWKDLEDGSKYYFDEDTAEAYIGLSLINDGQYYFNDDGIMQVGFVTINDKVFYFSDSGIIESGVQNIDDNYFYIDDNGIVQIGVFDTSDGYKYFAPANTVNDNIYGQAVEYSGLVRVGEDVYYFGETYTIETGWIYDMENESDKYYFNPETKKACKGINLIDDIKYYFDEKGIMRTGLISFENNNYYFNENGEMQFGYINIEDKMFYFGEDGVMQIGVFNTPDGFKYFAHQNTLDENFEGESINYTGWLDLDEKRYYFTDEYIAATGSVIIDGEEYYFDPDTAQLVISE

Q: Which “glucosylation of Rac1 in intact cells” value (Rac1) does the source give for CC[C@H](C)[C@@H]1NC(=O)CNC(=O)[C@H](CCSC)NC(=O)[C@H](C(C)C)NC(=O)[C@H]([C@@H](C)O)NC(=O)[C@@H]2CSSC[C@@H]3NC(=O)[C@H](Cc4c[nH]cn4)NC(=O)[C@@H](NC(=O)[C@@H](NC(=O)[C@H](Cc4ccccc4)NC(=O)[C@H](C)N)[C@@H](C)O)CSSC[C@@H](C(=O)N[C@@H](CC(C)C)C(=O)O)NC(=O)[C@H](CSSC[C@H](NC(=O)[C@H](CO)NC(=O)[C@H](CCCNC(=N)N)NC(=O)[C@H](CCCNC(=N)N)NC3=O)C(=O)N[C@@H](Cc3ccc(O)cc3)C(=O)N[C@@H](CO)C(=O)N[C@@H]([C@@H](C)O)C(=O)N[C@@H](CCC(=O)O)C(=O)N[C@@H](Cc3ccc(O)cc3)C(=O)N[C@@H](CO)C(=O)N[C@@H](Cc3ccc(O)cc3)C(=O)NCC(=O)N[C@@H]([C@@H](C)O)C(=O)N2)NC(=O)[C@H](Cc2ccccc2)NC(=O)[C@H](CCCNC(=N)N)NC(=O)[C@H](Cc2c[nH]cn2)NC(=O)[C@H](CC(N)=O)NC1=O [α-def-6] here?
A: less Rac1 was glucosylated

Q: What about the “morphological changes of TcdB-DL488-treated cells” value (Vero cells [1]) of the same molecule?
A: no morphological changes

Q: What about the “toxin-defensin aggregates in the presence of cells” value (Vero cells [1]) of the same molecule?
A: toxin-defensins-aggregates were also visible

Q: And the “inhibition of enzymatic activity of the glucosyltransferase domain of TcdB” value (TcdB glucosyltransferase)?
A: almost no inhibition

Q: What about the “amount of rounded CaCo-2 cells, TcdB” value (CaCo-2 cells [2]) of the same molecule?
A: reduced amount of rounded CaCo-2 cells was visible for at least 6 h

Q: And the “TEER, TcdA + TcdB” value (CaCo-2 monolayer)?
A: clear delay in TEER-reduction

Q: And the “time of formation of toxin-defensin aggregates” value (TcdB-DL488)?
A: within a few seconds to minutes

Q: What about the “formation of toxin-defensin complexes” value (TcdB-DL488; 0.5 h, no cells (n ≥ 2)) of the same molecule?
A: very fast and distinct formation of large toxin-defensin complexes

Q: What about the “amount of rounded CaCo-2 cells, TcdA” value (CaCo-2 cells [3]) of the same molecule?
A: reduced amount of rounded CaCo-2 cells was visible for at least 6 h

Q: And the “prevention of infection of cells with SARS-CoV-2” value (SARS-CoV-2)?
A: cannot prevent the infection of cells with SARS-CoV-2

Q: And the “inhibition of toxin effects on cells, TcdB” value (Vero cells [4])?
A: clear inhibition

Q: What about the “protection of cells against TcdB” value (Vero cells [4]) of the same molecule?
A: almost complete protection

Q: And the “reduction of the amount of rounded cells” value (Vero cells [4])?
A: clear concentration-dependent reduction of the amount of rounded cells

Q: What about the IC50 (Vero cells [4]; 5 h) of the same molecule?
A: ~500 nM

Q: And the “effect on TcdB-induced cytotoxicity and cardiotoxicity” value (zebrafish embryos)?
A: very efficiently reversed both the cytotoxic and cardiotoxic effects of TcdB

Q: What about the “toxicity of α-def-6 alone” value (zebrafish embryos) of the same molecule?
A: did not show any toxicity
